Molecules are shown by their SMILES.

Holding throughout (format): cell-based
For assay [1], the target named is T1, TRPML2 (Homo sapiens, UniProt Q8IZK6).
T1 construct: expressed in transfected cells
T1 sequence (Q8IZK6 1-566): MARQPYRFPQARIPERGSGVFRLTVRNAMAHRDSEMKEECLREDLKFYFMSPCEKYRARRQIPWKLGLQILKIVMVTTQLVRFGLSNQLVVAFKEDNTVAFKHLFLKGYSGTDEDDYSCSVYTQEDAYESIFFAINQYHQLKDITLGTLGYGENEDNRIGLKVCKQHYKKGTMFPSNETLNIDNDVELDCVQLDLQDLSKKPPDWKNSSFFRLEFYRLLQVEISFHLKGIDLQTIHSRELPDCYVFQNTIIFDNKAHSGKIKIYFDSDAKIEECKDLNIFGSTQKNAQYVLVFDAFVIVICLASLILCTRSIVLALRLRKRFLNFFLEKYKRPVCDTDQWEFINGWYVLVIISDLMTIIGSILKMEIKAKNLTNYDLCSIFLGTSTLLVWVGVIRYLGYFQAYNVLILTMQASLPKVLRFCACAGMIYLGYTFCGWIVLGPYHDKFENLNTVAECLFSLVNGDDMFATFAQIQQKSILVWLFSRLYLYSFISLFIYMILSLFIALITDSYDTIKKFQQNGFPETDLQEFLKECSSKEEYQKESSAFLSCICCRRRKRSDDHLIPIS
Put plainly: Fluorescent TRPML2 assay (as for TRPML1). In a few lines:
(§1)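 HEK-293 Trex cells with tet-inducible (0.5 ug/mL doxycycline, overnight) surface-targeted mutant channel, Fluo4-AM loaded, suspended in Ringer's with 10 mM calcium. Compounds tested 20 µM to 6 nM final, half-log steps, triplicate; fluorescence at ex 480/em 540 nm. EC50 by non-linear regression of percent activity versus plate controls.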

The target in assay [2] is human TRPML1 (Homo sapiens, UniProt Q9GZU1). Put plainly: Fluorescent TRPML1 assay (Fluo4-AM calcium fluorescence, HEK-293 Trex cells). In a few lines: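 Tet-inducible HEK-293 Trex cells stably expressing surface-targeted mutant human TRPML1, induced with 0.5 ug/mL doxycycline overnight, loaded with Fluo4-AM and suspended in Ringer's with 10 mM calcium. Compounds tested from 20 μM to 6 nM final, half-log steps, in triplicate; fluorescence (ex 480/em 540) normalised to plate controls, EC50 by non-linear regression.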
Sequence of human TRPML1 (Q9GZU1 whole entry L15A/L16A/L577A/L578A, form open): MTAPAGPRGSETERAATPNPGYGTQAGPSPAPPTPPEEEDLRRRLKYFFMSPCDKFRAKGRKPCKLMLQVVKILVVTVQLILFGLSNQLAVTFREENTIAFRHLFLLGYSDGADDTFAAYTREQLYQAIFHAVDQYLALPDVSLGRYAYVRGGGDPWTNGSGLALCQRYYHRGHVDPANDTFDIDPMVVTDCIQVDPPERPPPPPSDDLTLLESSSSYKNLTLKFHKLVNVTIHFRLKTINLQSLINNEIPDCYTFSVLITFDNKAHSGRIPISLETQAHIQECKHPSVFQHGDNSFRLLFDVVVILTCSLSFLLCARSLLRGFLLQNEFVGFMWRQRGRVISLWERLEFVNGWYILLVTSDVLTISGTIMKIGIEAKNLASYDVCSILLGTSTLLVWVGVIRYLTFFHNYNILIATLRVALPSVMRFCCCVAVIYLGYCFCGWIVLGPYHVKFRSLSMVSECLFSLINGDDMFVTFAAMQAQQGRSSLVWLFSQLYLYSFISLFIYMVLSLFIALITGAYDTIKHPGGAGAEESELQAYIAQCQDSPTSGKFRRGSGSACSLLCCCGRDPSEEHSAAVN

In assay [3] the target is T2, TRPML3 (Homo sapiens, UniProt Q8TDD5).
T2 construct: expressed in transfected cells
T2 sequence (Q8TDD5 1-553): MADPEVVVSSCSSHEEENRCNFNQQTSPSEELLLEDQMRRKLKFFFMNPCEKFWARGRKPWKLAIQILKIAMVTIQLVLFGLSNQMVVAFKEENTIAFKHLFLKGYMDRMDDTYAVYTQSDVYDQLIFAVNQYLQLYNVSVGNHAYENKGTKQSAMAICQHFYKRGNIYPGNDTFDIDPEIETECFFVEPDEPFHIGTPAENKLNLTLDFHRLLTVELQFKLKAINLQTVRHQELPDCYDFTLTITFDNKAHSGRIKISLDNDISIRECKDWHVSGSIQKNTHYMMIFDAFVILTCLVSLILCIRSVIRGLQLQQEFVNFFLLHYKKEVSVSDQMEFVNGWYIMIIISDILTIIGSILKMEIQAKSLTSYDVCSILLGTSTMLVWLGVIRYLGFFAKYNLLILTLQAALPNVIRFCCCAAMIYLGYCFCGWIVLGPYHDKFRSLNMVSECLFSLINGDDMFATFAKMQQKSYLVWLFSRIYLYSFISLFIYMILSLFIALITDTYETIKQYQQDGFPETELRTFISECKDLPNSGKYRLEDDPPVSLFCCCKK
Put plainly: Fluorescent TRPML3 assay (as for TRPML1). The method, boiled down:
as §1

As to `C[C@H]1CN(C(=O)C(C)(C)C)CCN1c1ncnc2c1c(C1CC1)cn2-c1cccc(F)c1` [Compound 215, (S)-1-(4-(5-cyclopropyl-7-(3-fluorophenyl)-7H-pyrrolo[2,3-d]pyrimidin-4-yl)-3-methylpiperazin-1-yl)-2,2-dimethylpropan-1-one], the EC50 was 0.1 to 0.5 µM in assay [1] (Table 3, compounds 201-283); 0.1 to 0.5 µM in assay [2] (Table 3, compounds 201-283); 0.5 to 2 µM in assay [3] (Table 3, compounds 201-283).

Turning to `CC(C)(C)C(=O)N1CCN(c2ncnc3c2c(-c2ccccc2F)cn3-c2cc(C#N)ccn2)CC1` [Compound 108, 2-(5-(2-fluorophenyl)-4-(4-pivaloylpiperazin-1-yl)-7H-pyrrolo[2,3-d]pyrimidin-7-yl)isonicotinonitrile], the EC50 in assay [1] (Table 3, compounds 101-177) was less than 0.1 µM; in assay [2] (Table 3, compounds 101-177), less than 0.1 µM; in assay [3] (Table 3, compounds 101-177), less than 0.1 µM.

On to `CC(C)C(=O)N1CCN(c2ncnc3c2c(-c2ccccc2F)cn3-c2cc(C#N)ccn2)[C@@H](C)C1` [Compound 102, (S)-2-(5-(2-fluorophenyl)-4-(4-isobutyryl-2-methylpiperazin-1-yl)-7H-pyrrolo[2,3-d]pyrimidin-7-yl)isonicotinonitrile], for which the concentration for a half-maximal effect (EC50) in assay [1] (Table 3, compounds 101-177) is 0.1 to 0.5 µM; in assay [2] (Table 3, compounds 101-177) it was less than 0.1 µM; in assay [3] (Table 3, compounds 101-177) it was less than 0.1 µM.

`CC(C)C(=O)N1CCN(c2ncnc3c2c(-c2ccccc2F)cn3-c2cc(C#N)ccn2)C[C@H]1C` [Compound 107, (R)-2-(5-(2-fluorophenyl)-4-(4-isobutyryl-3-methylpiperazin-1-yl)-7H-pyrrolo[2,3-d]pyrimidin-7-yl)isonicotinonitrile]: the EC50 is 0.1 to 0.5 µM in assay [1] (Table 3, compounds 101-177); less than 0.1 µM in assay [2] (Table 3, compounds 101-177); less than 0.1 µM in assay [3] (Table 3, compounds 101-177).

With `C[C@@H]1CN(c2ncnc3c2c(N2CCCC2)cn3-c2cccc(Cl)c2)[C@@H](C)CN1C(=O)C1(F)CC1` [Compound 280, ((2R,5S)-4-(7-(3-chlorophenyl)-5-(pyrrolidin-1-yl)-7H-pyrrolo[2,3-d]pyrimidin-4-yl)-2,5-dimethylpiperazin-1-yl)(1-fluorocyclopropyl)methanone], the EC50 in assay [1] (Table 3, compounds 201-283) was 0.5 to 2 µM; in assay [2] (Table 3, compounds 201-283) it was 0.1 to 0.5 µM; in assay [3] (Table 3, compounds 201-283) it was 0.5 to 2 µM.

For the compound `C[C@H]1CN(C(=O)C2(F)CC2)CCN1c1ncnc2c1c(N1CCCC1)cn2-c1cccc(Cl)c1` [Compound 278, (S)-(4-(7-(3-chlorophenyl)-5-(pyrrolidin-1-yl)-7H-pyrrolo[2,3-d]pyrimidin-4-yl)-3-methylpiperazin-1-yl)(1-fluorocyclopropyl)methanone], the 50% effective concentration (EC50) in assay [1] (Table 3, compounds 201-283) is 0.1 to 0.5 µM; in assay [2] (Table 3, compounds 201-283), less than 0.1 µM; in assay [3] (Table 3, compounds 201-283), 0.1 to 0.5 µM.

With `C[C@@H]1CN(c2ncnc3c2c(C2CC2)cn3-c2cc(C#N)ccn2)CCN1C(=O)C(C)(C)F` [Compound 130, (R)-2-(5-cyclopropyl-4-(4-(2-fluoro-2-methylpropanoyl)-3-methylpiperazin-1-yl)-7H-pyrrolo[2,3-d]pyrimidin-7-yl)isonicotinonitrile], the concentration for a half-maximal effect (EC50) in assay [1] (Table 3, compounds 101-177) was 0.1 to 0.5 µM; in assay [2] (Table 3, compounds 101-177) it was less than 0.1 µM; in assay [3] (Table 3, compounds 101-177), less than 0.1 µM.

With `C[C@H]1CN(C(=O)CC(C)(C)C(F)(F)F)CCN1c1ncnc2c1c(C1CC1)cn2-c1cc(C#N)ccn1` [Compound 141, (S)-2-(5-cyclopropyl-4-(2-methyl-4-(4,4,4-trifluoro-3,3-dimethylbutanoyl)piperazin-1-yl)-7H-pyrrolo[2,3-d]pyrimidin-7-yl)isonicotinonitrile], the concentration giving a half-maximal response (EC50) in assay [1] (Table 3, compounds 101-177) is 0.1 to 0.5 µM; in assay [2] (Table 3, compounds 101-177) it was less than 0.1 µM; in assay [3] (Table 3, compounds 101-177), less than 0.1 µM.

Consider `C[C@@H]1CN(c2ncnc3c2c(-c2ccccc2F)cn3-c2cc(C#N)ccn2)[C@@H](C)CN1C(=O)C(C)(C)C` [Compound 230, 2-(4-((2S,5R)-2,5-dimethyl-4-pivaloylpiperazin-1-yl)-5-(2-fluorophenyl)-7H-pyrrolo[2,3-d]pyrimidin-7-yl)isonicotinonitrile], for which the EC50 in assay [1] (Table 3, compounds 201-283) was less than 0.1 µM; in assay [2] (Table 3, compounds 201-283), less than 0.1 µM; in assay [3] (Table 3, compounds 201-283) it was less than 0.1 µM.

Take `C[C@@H]1CN(c2ncnc3c2c(N2CCCC2)cn3-c2cccc(Cl)c2)CCN1C(=O)C1(F)CC1` [Compound 279, (R)-(4-(7-(3-chlorophenyl)-5-(pyrrolidin-1-yl)-7H-pyrrolo[2,3-d]pyrimidin-4-yl)-2-methylpiperazin-1-yl)(1-fluorocyclopropyl)methanone]: the 50% effective concentration (EC50) in assay [1] (Table 3, compounds 201-283) lay within 0.5 to 2 µM; in assay [2] (Table 3, compounds 201-283) it was 0.1 to 0.5 µM; in assay [3] (Table 3, compounds 201-283) it was 0.5 to 2 µM.

Regarding `C[C@@H]1CN(c2ncnc3c2c(C2CCC2)cn3-c2cccc(Cl)c2)[C@@H](C)CN1C(=O)C(C)(C)C(F)(F)F` [Compound 257, 1-((2R,5S)-4-(7-(3-chlorophenyl)-5-cyclobutyl-7H-pyrrolo[2,3-d]pyrimidin-4-yl)-2,5-dimethylpiperazin-1-yl)-3,3,3-trifluoro-2,2-dimethylpropan-1-one], the half-maximal effective concentration (EC50) was 0.1 to 0.5 µM in assay [1] (Table 3, compounds 201-283); less than 0.1 µM in assay [2] (Table 3, compounds 201-283); 0.5 to 2 µM in assay [3] (Table 3, compounds 201-283).

With `C[C@@H]1CN(c2ncnc3c2c(C(F)(F)F)cn3-c2cc(C#N)ccn2)[C@@H](C)CN1C(=O)CC(C)(C)C` [Compound 209, 2-(4-((2S,5R)-4-(3,3-dimethylbutanoyl)-2,5-dimethylpiperazin-1-yl)-5-(trifluoromethyl)-7H-pyrrolo[2,3-d]pyrimidin-7-yl)isonicotinonitrile], the concentration for a half-maximal effect (EC50) was less than 0.1 µM in assay [1] (Table 3, compounds 201-283); less than 0.1 µM in assay [2] (Table 3, compounds 201-283); less than 0.1 µM in assay [3] (Table 3, compounds 201-283).

On to `COC(C)(C)C(=O)N1C[C@H](C)N(c2ncnc3c2c(-c2ccccc2)cn3-c2cc(C#N)ccn2)C[C@H]1C` [Compound 282, 2-(4-((2S,5R)-4-(2-methoxy-2-methylpropanoyl)-2,5-dimethylpiperazin-1-yl)-5-phenyl-7H-pyrrolo[2,3-d]pyrimidin-7-yl)isonicotinonitrile], for which the EC50 in assay [1] (Table 3, compounds 201-283) is less than 0.1 µM; in assay [2] (Table 3, compounds 201-283) it was less than 0.1 µM; in assay [3] (Table 3, compounds 201-283), less than 0.1 µM.

With `C[C@@H]1CN(c2ncnc3c2c(-c2ccccc2F)cn3-c2cc(F)ccn2)[C@@H](C)CN1C(=O)C1(F)CC1` [Compound 247, (1-fluorocyclopropyl)((2R,5S)-4-(5-(2-fluorophenyl)-7-(4-fluoropyridin-2-yl)-7H-pyrrolo[2,3-d]pyrimidin-4-yl)-2,5-dimethylpiperazin-1-yl)methanone], the 50% effective concentration (EC50) in assay [1] (Table 3, compounds 201-283) was 0.5 to 2 µM; in assay [2] (Table 3, compounds 201-283) it was less than 0.1 µM; in assay [3] (Table 3, compounds 201-283), 0.5 to 2 µM.

Regarding `C[C@@H]1CN(c2ncnc3c2c(C2CCC2)cn3-c2cccc(C(F)(F)F)c2)[C@@H](C)CN1C(=O)C1(F)CC1` [Compound 260, ((2R,5S)-4-(5-cyclobutyl-7-(3-(trifluoromethyl)phenyl)-7H-pyrrolo[2,3-d]pyrimidin-4-yl)-2,5-dimethylpiperazin-1-yl)(1-fluorocyclopropyl)methanone], the concentration giving a half-maximal response (EC50) in assay [1] (Table 3, compounds 201-283) was more than 2 µM; in assay [2] (Table 3, compounds 201-283), 0.1 to 0.5 µM; in assay [3] (Table 3, compounds 201-283) it was 0.5 to 2 µM.

In the case of `C[C@@H]1CN(c2ncnc3c2c(C2CC2)cn3-c2cc(C#N)ccn2)CCN1C(=O)C(C)(C)C` [Compound 122, (R)-2-(5-cyclopropyl-4-(3-methyl-4-pivaloylpiperazin-1-yl)-7H-pyrrolo[2,3-d]pyrimidin-7-yl)isonicotinonitrile], the EC50 was 0.1 to 0.5 µM in assay [1] (Table 3, compounds 101-177); less than 0.1 µM in assay [2] (Table 3, compounds 101-177); 0.1 to 0.5 µM in assay [3] (Table 3, compounds 101-177).

With `C[C@@H]1CN(c2ncnc3c2c(C2CCC2)cn3-c2cc(C#N)ccn2)[C@@H](C)CN1C(=O)CC(C)(C)C(F)(F)F` [Compound 239, 2-(5-cyclobutyl-4-((2S,5R)-2,5-dimethyl-4-(4,4,4-trifluoro-3,3-dimethylbutanoyl)piperazin-1-yl)-7H-pyrrolo[2,3-d]pyrimidin-7-yl)isonicotinonitrile], the EC50 in assay [1] (Table 3, compounds 201-283) was 0.5 to 2 µM; in assay [2] (Table 3, compounds 201-283), less than 0.1 µM; in assay [3] (Table 3, compounds 201-283), less than 0.1 µM.

Broadly, the EC50 is the midpoint of the concentration-response curve.

These data come from US20240398812A1 (Caraway Therapeutics, Inc., priority 2021, published 2024).
